Laboratory results as given in ChEMBL document CHEMBL1914371, “Development of a bivalent dopamine D₂ receptor agonist” (J Med Chem, 2011).

Assays:
D(2) dopamine receptor [1] = target: T1, D(2) dopamine receptor (Homo sapiens, UniProt P14416); assay: Displacement of [3H]spiperone from human DRD2 short receptor expressed in chinese hamster CHO cells by radioligand binding assay; type: cell-based
D(2) dopamine receptor [2] = target: T1, D(2) dopamine receptor; assay: Displacement of [3H]spiperone from human DRD2 Long receptor expressed in chinese hamster CHO cells by radioligand binding assay; type: cell-based
D(4) dopamine receptor = target: T2, D(4) dopamine receptor (Homo sapiens, UniProt P21917); assay: Displacement of [3H]spiperone from human dopamine D4.4 receptor expressed in chinese hamster CHO cells by radioligand binding assay; type: cell-based
T2 sequence (P21917 whole entry): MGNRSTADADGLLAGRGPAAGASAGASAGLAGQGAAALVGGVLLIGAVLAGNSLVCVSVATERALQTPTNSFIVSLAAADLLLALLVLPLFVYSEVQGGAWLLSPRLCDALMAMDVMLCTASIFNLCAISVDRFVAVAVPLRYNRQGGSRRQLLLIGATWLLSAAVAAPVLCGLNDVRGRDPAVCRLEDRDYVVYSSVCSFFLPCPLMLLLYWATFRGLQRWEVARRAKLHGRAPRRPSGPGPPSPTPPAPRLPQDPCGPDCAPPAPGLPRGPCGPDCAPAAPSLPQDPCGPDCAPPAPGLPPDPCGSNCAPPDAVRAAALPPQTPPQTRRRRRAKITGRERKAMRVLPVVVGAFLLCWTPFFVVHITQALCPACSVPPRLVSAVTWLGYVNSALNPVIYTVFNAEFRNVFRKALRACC

D(3) dopamine receptor = D(3) dopamine receptor (Homo sapiens, UniProt P35462); assay: Displacement of [3H]spiperone from human dopamine D3 receptor expressed in chinese hamster CHO cells by radioligand binding assay; type: cell-based
D(1A) dopamine receptor = D(1A) dopamine receptor (Sus scrofa, UniProt P50130); assay: Displacement of [3H]SCH 23390 from pig dopamine D1 receptor in striatal membrane; type: cell membranes, Striatum
D(2) dopamine receptor [3] = target: T1, D(2) dopamine receptor; assay: Partial agonist activity at DRD2 Long receptor expressed in CHO cells assessed as inhibition of forskolin-stimulated cAMP accumulation by bioluminescence assay relative to quinpirole; type: functional, cell-based
D(2) dopamine receptor [4] = target: T1, D(2) dopamine receptor; assay: Partial agonist activity at DRD2 Long receptor expressed in CHO cells assessed as inhibition of forskolin-stimulated cAMP accumulation by bioluminescence assay; type: functional, cell-based
D(2) dopamine receptor [5] = target: T1, D(2) dopamine receptor; assay: Antagonist activity at DRD2 Long receptor expressed in CHO cells assessed as […] of forskolin-stimulated cAMP accumulation by bioluminescence assay relative to quinpirole; type: functional, cell-based
D(2) dopamine receptor [6] = target: T1, D(2) dopamine receptor; assay: Agonist activity at DRD2 Long receptor expressed in CHO cells assessed as inhibition of forskolin-stimulated cAMP accumulation by bioluminescence assay; type: functional, cell-based

Sequence of D(1A) dopamine receptor (P50130 whole entry): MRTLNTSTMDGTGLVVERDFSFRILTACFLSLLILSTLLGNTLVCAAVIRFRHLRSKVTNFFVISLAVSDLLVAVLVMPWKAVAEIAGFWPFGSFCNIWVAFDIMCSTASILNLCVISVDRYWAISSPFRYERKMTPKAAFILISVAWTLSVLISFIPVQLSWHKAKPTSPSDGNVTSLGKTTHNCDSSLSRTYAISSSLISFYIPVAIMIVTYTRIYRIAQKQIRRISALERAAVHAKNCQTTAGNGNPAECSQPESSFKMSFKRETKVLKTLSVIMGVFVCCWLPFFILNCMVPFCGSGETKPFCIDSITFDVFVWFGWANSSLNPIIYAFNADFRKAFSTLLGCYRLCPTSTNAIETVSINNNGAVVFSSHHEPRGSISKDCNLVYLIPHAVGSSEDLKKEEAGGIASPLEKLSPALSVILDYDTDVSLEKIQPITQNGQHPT
T1 sequence (P14416 whole entry): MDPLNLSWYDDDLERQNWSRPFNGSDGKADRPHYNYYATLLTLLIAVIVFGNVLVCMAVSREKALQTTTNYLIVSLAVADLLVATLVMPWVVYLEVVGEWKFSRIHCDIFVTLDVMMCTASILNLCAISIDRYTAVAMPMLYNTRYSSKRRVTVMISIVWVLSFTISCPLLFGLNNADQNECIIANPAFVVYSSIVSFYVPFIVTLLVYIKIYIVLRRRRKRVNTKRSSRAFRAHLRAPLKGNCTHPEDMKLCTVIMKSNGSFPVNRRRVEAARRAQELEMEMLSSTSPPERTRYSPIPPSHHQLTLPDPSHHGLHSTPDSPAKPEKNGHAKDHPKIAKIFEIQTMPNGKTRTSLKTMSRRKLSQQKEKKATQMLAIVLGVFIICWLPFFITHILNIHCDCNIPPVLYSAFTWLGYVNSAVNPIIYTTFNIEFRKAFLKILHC
Sequence of D(3) dopamine receptor (P35462 whole entry): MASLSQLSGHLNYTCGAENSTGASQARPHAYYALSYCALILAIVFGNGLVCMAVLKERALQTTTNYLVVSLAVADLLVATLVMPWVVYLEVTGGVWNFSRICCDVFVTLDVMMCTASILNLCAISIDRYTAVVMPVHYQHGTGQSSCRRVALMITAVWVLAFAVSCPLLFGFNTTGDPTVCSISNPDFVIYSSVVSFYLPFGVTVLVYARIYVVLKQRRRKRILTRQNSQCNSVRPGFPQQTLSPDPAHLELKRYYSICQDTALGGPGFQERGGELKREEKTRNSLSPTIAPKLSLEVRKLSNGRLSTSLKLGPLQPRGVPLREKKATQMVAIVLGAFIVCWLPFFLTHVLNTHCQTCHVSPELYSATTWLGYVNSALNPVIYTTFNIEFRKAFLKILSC

Structure (SMILES)	Ki (D(2) dopamine receptor [1]) [nM]	Ki (D(2) dopamine receptor [2]) [nM]	Ki (D(4) dopamine receptor) [nM]	Ki (D(3) dopamine receptor) [nM]	Ki (D(1A) dopamine receptor) [nM]	Efficacy (D(2) dopamine receptor [3]) [%]	EC50 (D(2) dopamine receptor [4]) [nM]	Efficacy (D(2) dopamine receptor [5]) [%]	EC50 (D(2) dopamine receptor [6]) [nM]
COc1cc(C(=O)NCCCCN2CCN(c3ccccc3OC)CC2)ccc1OCCCc1cn(CCCCCCCCn2cc(CCCOc3ccc(C(=O)NCCCCN4CCN(c5ccccc5OC)CC4)cc3OC)nn2)nn1	110	110	660	12	2800				
CCCN(CCCCNC(=O)c1ccc(OCCCc2cn(CCCCCCCCn3cc(CCCOc4ccc(CN5CCN(c6ccccc6OC)CC5)cc4OC)nn3)nn2)c(OC)c1)C1Cc2ccccc2C1	8.8	14	22	1.2	330	13	380		
CCCN(CCCCNC(=O)c1ccc(OCCCc2cn(CCCCCCCCn3cc(CCCOc4ccc(C(=O)NCCCCN5CCN(c6ccccc6OC)CC5)cc4OC)nn3)nn2)c(OC)c1)C1Cc2ccccc2C1	17	25	40	2	200			< 3	
CCCCn1cc(CCCOc2ccc(C(=O)NCCCCN3CCN(c4ccccc4OC)CC3)cc2OC)nn1	12	17	84	2	1200				
CCCCn1cc(CCCOc2ccc(C(=O)NCCCCN(CCC)C3Cc4ccccc4C3)cc2OC)nn1	4.1	12	42	0.71	6000				13
CCCN(CCCCNC(=O)c1ccc(OCCCc2cn(CCCCCCCCn3cc(CCCOc4ccc(C(=O)NCCCCN(CCC)C5Cc6ccccc6C5)cc4OC)nn3)nn2)c(OC)c1)C1Cc2ccccc2C1	16	16	34	1.8	510				440
